According to publication doi:10.1101/819920v2 (biorxiv, 2020):

Biological target: YegI (Escherichia coli, UniProt Q8X7J8)
Experiment: biochemical

Sequence of YegI (Q8X7J8 whole entry): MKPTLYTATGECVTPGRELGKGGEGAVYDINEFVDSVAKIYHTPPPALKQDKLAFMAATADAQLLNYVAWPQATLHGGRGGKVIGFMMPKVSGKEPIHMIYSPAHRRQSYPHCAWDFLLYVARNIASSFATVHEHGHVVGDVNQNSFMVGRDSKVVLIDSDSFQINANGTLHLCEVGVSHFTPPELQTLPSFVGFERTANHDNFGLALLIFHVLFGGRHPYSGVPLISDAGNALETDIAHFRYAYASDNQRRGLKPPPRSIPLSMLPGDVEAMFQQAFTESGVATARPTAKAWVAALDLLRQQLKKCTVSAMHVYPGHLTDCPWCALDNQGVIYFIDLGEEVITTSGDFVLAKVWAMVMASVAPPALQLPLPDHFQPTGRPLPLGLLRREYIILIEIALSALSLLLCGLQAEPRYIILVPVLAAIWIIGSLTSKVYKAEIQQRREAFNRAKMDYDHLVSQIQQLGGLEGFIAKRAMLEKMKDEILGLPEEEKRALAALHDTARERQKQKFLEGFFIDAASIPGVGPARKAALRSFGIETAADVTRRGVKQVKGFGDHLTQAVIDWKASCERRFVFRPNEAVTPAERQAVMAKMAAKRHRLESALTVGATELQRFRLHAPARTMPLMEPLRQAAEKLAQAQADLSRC

Q: How did the IC50 turn out when `CN[C@@H]1C[C@H]2O[C@@](C)([C@@H]1OC)n1c3ccccc3c3c4c(c5c6ccccc6n2c5c31)C(=O)NC4` [staurosporine] was run?
A: ~50 µM
